Assay results: US20260055110A1 (Azura Ophthalmics Ltd., priority 2021, published 2026)

Assays:
Rabbit Cornea Esterase = test: Rabbit Cornea Homogenate Stability Assay (Rabbit Cornea Esterase Assay); format: in vitro ADME
Protocol: Example 1: Rabbit Cornea Homogenate Stability Assay […]
Three to four rabbit corneas (e.g., New Zealand Whites (NZW) or Dutch Belted (DB)) of approx. 50 mg each were sliced and scraped with a scalpel and tweezers until reduced to small (1-3 mm), thin pieces. These were transferred into a glass vial containing approximately 2 mL of cold DPBS pH 7.4 buffer.
Sample was cooled intermittently on ice and shear homogenized for 3 minutes, then centrifuged for 3 min at 13,000 g. The supernatant was pipetted off into a vial, and total protein concentration determined at 280 nm. Sample was stored at −78° C.
10 mM Compound DMSO stocks were diluted to 10 μM in a glass vial: 10 μL of 10 mM Compound stock was added to 9,990 μl 50 mM DPBS, pH 7.4 buffer. Esterase homogenate was diluted to 300 ng/μl and 900 ng/μL in DPBS.
A heater shaker was set to 37° C. Into a suitable 96 well plate (Run Plate), 70 μL of 300 or 900 ng/μl esterase homogenate was pipetted into two rows as compounds were analyzed in duplicate (2 min, 5 min, 10 min, 20 min and 45 min). The plate was sealed and then warmed at 37° C. for 5 min.
Two 96 deep-well plates were put on ice (Kill Plates). To these, 990 μL of 50:50 MeCN—H2O were added to required rows, labelled 0 min 2 min, 5 min, 10 min, 20 min and 45 min. The plates were covered to minimize evaporation.
To both rows of the Run Plate, 70 μL of 10 μM compound solution was added. At the appropriate time point, 10 μL of the assay mixture was added to the matching kill plate well containing 990 μL of 50:50 cold MeCN—H2O. Samples were analyzed as soon as practicable by UPLC-MS (Waters Xevo TQ-S).
A heater shaker was set to 37° C. Into a suitable 96 well plate (Run Plate), 80 μL of 300 or 900 ng/μL esterase homogenate was pipetted into two rows as compounds were analyzed in duplicate (2 min, 5 min, 10 min, 20 min and 45 min). The plate was sealed and then warmed at 37° C. for 5 min.
Two 96 shallow-well plates were placed on ice (Kill Plates). To these, 180 μL of 60:40 MeCN-H2O+0.1% acetic acid are added to required rows. The plates were sealed to minimize evaporation.
To both rows of the Run Plate, 80 μL of 10 μM compound solution was added. At the appropriate time point, 20 μL of the assay mixture was added to the matching kill plate well containing 180 μL of 60:40 cold MeCN-H2O+0.1% acetic acid. For lipoic acid analysis, samples were analyzed as soon as practicable by LCMS (Waters Xevo TQ-S). For parent conjugate and parent analysis the samples are diluted further 1 in 10: 20 μL supernatant is added to 180 μL of 50:50 MeCN—H2O.

[1] = Aqueous Hydrolysis Stability Assay; settings: DPBS pH 7.4, 37° C.
Protocol: Example 2: Aqueous Hydrolysis Stability Assay
Determination of aqueous stability of the test compounds was performed using UPLC-MS. A test compound 10 mM stock solution was prepared in DMSO. 10 μL of the DMSO stock solution was dissolved in 990 μL of DPBS pH 7.4 buffer to prepare a 100 μM stock. A further dilution was made by dissolving 75 μl of 100 μM stock into 225 μL of DPBS. Final DMSO concentration is 0.25%. The solution is kept at 37° C. and injected without delay into the LCMS (Waters Xevo TQ-). Additional injections were performed at appropriate time points.
Half-life (T1/2) of the parent conjugate was calculated using the peak area or measured concentration of the parent conjugate at each time point in the linear region of the log—linear plot.

[2] = biological target: T1, glucocorticoid receptor (GR) (Homo sapiens, UniProt P04150); test: Glucocorticoid Binding Assay, GR (h) (agonist radioligand); settings: IM9 cytosol, 3H-dexamethasone competitive binding
T1 construct: by mixing 1 mg of IM9 cytosol; host or cells: IM9 human lymphoblast cell cytosol
T1 sequence (P04150 1-777): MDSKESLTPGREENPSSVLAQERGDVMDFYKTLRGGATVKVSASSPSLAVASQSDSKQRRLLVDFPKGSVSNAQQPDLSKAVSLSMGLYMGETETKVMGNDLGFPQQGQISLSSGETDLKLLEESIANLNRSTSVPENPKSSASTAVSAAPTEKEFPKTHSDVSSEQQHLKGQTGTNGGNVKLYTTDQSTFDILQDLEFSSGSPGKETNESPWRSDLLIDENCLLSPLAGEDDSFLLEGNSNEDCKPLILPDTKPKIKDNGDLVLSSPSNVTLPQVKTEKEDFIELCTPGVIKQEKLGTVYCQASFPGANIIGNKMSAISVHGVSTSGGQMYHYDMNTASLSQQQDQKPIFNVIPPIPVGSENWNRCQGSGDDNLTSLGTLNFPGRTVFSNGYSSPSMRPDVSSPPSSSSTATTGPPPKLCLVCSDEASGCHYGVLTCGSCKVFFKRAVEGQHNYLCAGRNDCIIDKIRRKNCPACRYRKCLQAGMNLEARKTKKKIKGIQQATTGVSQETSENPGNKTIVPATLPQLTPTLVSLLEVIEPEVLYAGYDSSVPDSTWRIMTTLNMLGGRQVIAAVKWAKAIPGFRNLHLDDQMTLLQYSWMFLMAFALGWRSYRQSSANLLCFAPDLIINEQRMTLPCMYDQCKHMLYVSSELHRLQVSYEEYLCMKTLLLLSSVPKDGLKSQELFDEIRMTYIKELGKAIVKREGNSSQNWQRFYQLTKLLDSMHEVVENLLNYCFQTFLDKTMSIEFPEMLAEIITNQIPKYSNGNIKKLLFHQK
Protocol: GR (h) (agonist radioligand) assay performed by Eurofins Cerep, France using a method similar to the one described hereinbelow.
The human lymphoblast cell line IM9 is used as a source of the soluble glucocorticoid receptor (GR). The cells are grown to densities of 1 to 10×10^5 cells per milliliter in RPMI 1640 media containing 10% fetal bovine serum, penicillin (100 U/ml), streptomycin (100 μg/ml), and 2 mM L-glutamine at […] and 7% CO2 in a humidified incubator. The IM9 cells are harvested from the media by centrifugation for 10 minutes at 1500 g. Cells are washed in 12 volumes of Dulbecco's phosphate-buffered saline (PBS) and re-pelleted. Washed cells are resuspended in five to six volumes (per volume of packed cells) of homogenization buffer (10 mM TES, 10 mM sodium molybdate, 1 mM EDTA, pH 7.4, 20 mM 2-mercaptoethanol, and 10% glycerol), and the cells are broken by nitrogen cavitation using 2×15 minutes at 600 to 750 psi nitrogen in the N2 cavitator at 0° C. Cell disruption is confirmed by Hoffman contrast microscopy using a Nikon Diaphot. The broken cell preparation is then centrifuged at 27,000 g for 15 minutes, and the resultant supernatant was centrifuged at 103,000 g for 60 minutes at 4° C. The amount of protein in the supernatant fraction is determined using a BCA assay kit with a bovine serum albumin standard. Aliquots of the supernatant fraction are snap frozen in a dry ice-acetone bath and stored at −70° C. Competitive binding assays are done in duplicate in homogenization buffer (total volume of […]) by mixing 1 mg of IM9 cytosol, 0.05/ρCi (3 nM) of ^3H-dexamethasone, and Compounds described herein (10^−5 to 10^−11 M). After incubation at 0° C. for 16 to 18 hours, the assay is stopped by the addition of […] of a charcoal-dextran mixture (2% activated charcoal, 0.5% dextran in 10 mM Tris, 1 mM EDTA, pH 7.4). The assay mixture is further incubated at 0° C. for 10 minutes before being centrifuged for 5 minutes at 8200 g. A 100-μl sample of the supernatant (protein-bound steroid fraction) is assayed for radioactivity by liquid scintillation spectrometry, and the IC50 values were determined graphically.
In some instances, an ester is active in the glucocorticoid binding assay. In some instances, an ester retains activity, such as when attached to a keratolytic agent (or a radical thereof), in the glucocorticoid binding assay.

[3] = rabbit cornea homogenate 0.15 mg/mL total protein, NZW, 37° C.
[4] = rabbit cornea homogenate 0.45 mg/mL total protein, NZW, 37° C.
[5] = rabbit cornea homogenate 0.15 mg/mL total protein, DB, 37° C.
[6] = rabbit cornea homogenate 0.45 mg/mL total protein, DB, 37° C.

SMILES: CC(C)C(=O)n1ccc2c(-c3cnn([C@H](CC#N)C4CCCC4)c3)ncnc21 [Compound 49]
- Esterase (0.15 mg/mL) % parent released after 45 min (Rabbit Cornea Esterase; [3]): D NZW) (>75%)
- Esterase (0.45 mg/mL) % parent released after 45 min (Rabbit Cornea Esterase; [4]): D (NZW) (>75%)

SMILES: C[C@]12C=CC(=O)C=C1CC[C@@H]1[C@@H]2[C@@H](O)C[C@@]2(C)[C@H]1CC[C@]2(OC(=O)CCCC[C@@H]1CCSS1)C(=O)OCCl [Compound 59]
- Esterase (0.9 mg/mL) T1/2 (45 min) (Rabbit Cornea Esterase; rabbit cornea homogenate 0.9 mg/mL, NZW, 37° C.): 22.6 (NZW) min
- Esterase (2.0 mg/mL) T1/2 (45 min) (Rabbit Cornea Esterase; rabbit cornea homogenate 2.0 mg/mL, NZW, 37° C.): 21.3 (NZW) min
- Aqueous Stability (DPBS) T1/2 after t min ([1]; t = 45): 31.6 min

SMILES: CNS(=O)(=O)CC1CCC(N(C)c2ncnc3c2ccn3COC(=O)CCCC[C@@H]2CCSS2)CC1 (some centres unmarked) [Compound 31]
- Esterase (0.15 mg/mL) % parent released after 45 min (Rabbit Cornea Esterase; [3]): C (NZW) (51% to 75%)
- Esterase (0.45 mg/mL) % parent released after 45 min (Rabbit Cornea Esterase; [4]): C (NZW) (51% to 75%)
- Aqueous Stability (DPBS) % parent released after t min ([1]; t = 44): A (t = 44) (<25%)

SMILES: C[C@@H]1C[C@H]2[C@@H]3C[C@H](F)C4=CC(=O)C=C[C@]4(C)[C@@]3(F)[C@@H](O)C[C@]2(C)[C@@]1(OC(=O)CCCC[C@@H]1CCSS1)C(=O)O [Chemical Synthesis Example 68, (6S,8S,9R,10S,11S,13S,14S,16R,17R)-17-((5-((R)-1,2-Dithiolan-3-yl)pentanoyl)oxy)-6,9-difluoro-11-hydroxy-10,13,16-trimethyl-3-oxo-6,7,8,9,10,11,12,13,14,15,16,17-dodecahydro-3H-cyclopenta[a]phenanthrene-17-carboxylic acid]
- EC50 [2]: 21 nM

SMILES: N#CC[C@@H](C1CCCC1)n1cc(-c2ncnc3c2ccn3C(=O)CCCC[C@@H]2CCSS2)cn1 [Compound 39]
- Esterase (0.15 mg/mL) % parent released after 45 min (Rabbit Cornea Esterase; [3]): B (NZW) (25% to 50%)
- Esterase (0.45 mg/mL) % parent released after 45 min (Rabbit Cornea Esterase; [4]): C (NZW) (51% to 75%)
- Aqueous Stability (DPBS) % parent released after t min ([1]; t = 45): B (t = 45) (25% to 50%)

SMILES: C=CC(=O)N1C[C@H](Nc2ncnc3c2ccn3C(=O)OC(C)C)CC[C@@H]1C [Compound 23]
- Esterase (0.15 mg/mL) % parent released after 45 min (Rabbit Cornea Esterase; [3]): A (NZW) (<25%)
- Esterase (0.45 mg/mL) % parent released after 45 min (Rabbit Cornea Esterase; [4]): A (NZW) (<25%)

SMILES: CC(C)OC(=O)OC(C)n1ccc2c(-c3cnn([C@H](CC#N)C4CCCC4)c3)ncnc21 (some centres unmarked) [Compound 50]
- Esterase (0.15 mg/mL) % parent released after 45 min (Rabbit Cornea Esterase; [5]): D (DB) (>75%)
- Esterase (0.45 mg/mL) % parent released after 45 min (Rabbit Cornea Esterase; [6]): D (DB) (>75%)
- Aqueous Stability (DPBS) % parent released after t min ([1]; t = 44): B (t = 44) (25% to 50%)

SMILES: C=CC(=O)N1C[C@H](Nc2ncnc3c2ccn3COC(=O)CCCC[C@@H]2CCSS2)CC[C@@H]1C [Compound 12]
- Esterase (0.15 mg/mL) % parent released after 45 min (Rabbit Cornea Esterase; [3]): B (NZW) (25% to 50%)
- Esterase (0.45 mg/mL) % parent released after 45 min (Rabbit Cornea Esterase; [4]): B (NZW) (25% to 50%)
- Aqueous Stability (DPBS) % parent released after t min ([1]; t = 44): A (t = 44) (<25%)

SMILES: N#CC[C@@H](C1CCCC1)n1cc(-c2ncnc3c2ccn3COC(=O)CCCC[C@@H]2CCSS2)cn1 [Compound 40]
- Esterase (0.15 mg/mL) % parent released after 45 min (Rabbit Cornea Esterase; [3]): D (NZW) (>75%)
- Esterase (0.45 mg/mL) % parent released after 45 min (Rabbit Cornea Esterase; [4]): D (NZW) (>75%)
- Aqueous Stability (DPBS) % parent released after t min ([1]; t = 45): A (t = 45) (<25%)

SMILES: C=CC(=O)N1C[C@H](Nc2ncnc3c2ccn3C(C)OC(=O)OC(C)C)CC[C@@H]1C (some centres unmarked) [Compound 22]
- Esterase (0.15 mg/mL) % parent released after 45 min (Rabbit Cornea Esterase; [3]): D (NZW) (>75%)
- Esterase (0.45 mg/mL) % parent released after 45 min (Rabbit Cornea Esterase; [4]): D (NZW) (>75%)

SMILES: CC(OC(=O)CCCC[C@@H]1CCSS1)n1ccc2c(-c3cnn([C@H](CC#N)C4CCCC4)c3)ncnc21 (some centres unmarked) [Compound 38]
- Esterase (0.15 mg/mL) % parent released after 45 min (Rabbit Cornea Esterase; [3]): B (NZW) (25% to 50%)
- Esterase (0.45 mg/mL) % parent released after 45 min (Rabbit Cornea Esterase; [4]): C (NZW) (51% to 75%)
- Aqueous Stability (DPBS) % parent released after t min ([1]; t = 48): A (t = 48) (<25%)

SMILES: CC(=O)N[C@@H](CS)C(=O)O[C@]1(C(=O)OCC#N)[C@H](C)C[C@H]2[C@@H]3C[C@H](F)C4=CC(=O)C=C[C@]4(C)[C@@]3(F)[C@@H](O)C[C@@]21C [Compound 73B, Cyanomethyl (6S,8S,9R,10S,11S,13S,14S,16R,17R)-17-((acetyl-L-cysteinyl)oxy)-6,9-difluoro-11-hydroxy-10,13,16-trimethyl-3-oxo-6,7,8,9,10,11,12,13,14,15,16,17dodecahydro-3H-cyclopenta[a]phenanthrene-17-carboxylate]
- Esterase (0.15 mg/mL) % parent released after 45 min (Rabbit Cornea Esterase; Table 13, rabbit cornea homogenate 0.15 mg/mL, rabbit breed not given): A (<25%)
- Esterase (0.45 mg/mL) % parent released after 45 min (Rabbit Cornea Esterase; Table 13, rabbit cornea homogenate 0.45 mg/mL, rabbit breed not given): A (<25%)

SMILES: CC(C)C(=O)OC(C)n1ccc2c(-c3cnn([C@H](CC#N)C4CCCC4)c3)ncnc21 (some centres unmarked) [Compound 48]
- Esterase (0.15 mg/mL) % parent released after 45 min (Rabbit Cornea Esterase; [3]): A (NZW) (<25%)
- Esterase (0.45 mg/mL) % parent released after 45 min (Rabbit Cornea Esterase; [4]): A (NZW) (<25%)

SMILES: CC(C)OC(=O)n1ccc2c(-c3cnn([C@H](CC#N)C4CCCC4)c3)ncnc21 [Compound 51]
- Esterase (0.15 mg/mL) % parent released after 45 min (Rabbit Cornea Esterase; [5]): A (DB) (<25%)
- Esterase (0.45 mg/mL) % parent released after 45 min (Rabbit Cornea Esterase; [6]): B (DB) (25% to 50%)
- Aqueous Stability (DPBS) % parent released after t min ([1]; t = 45): A (t = 45) (<25%)
